Experimental data from patent US20180184680A1, “LONG-LASTING COOLING FORMULATIONS” (WM. WRIGLEY JR. COMPANY, priority 2015, published 2018).

Key:
Subjects = experiment: ESA panel evaluation of compressed mints (cooling strength, flavor strength, bitterness/off-taste); type: in vivo, human; conditions: for upfront cooling intensity: first 3 minutes, 9-point scale, WS-5 500 ppm
Method: All samples were prepared in a pilot plant under good manufacture practice conditions. Samples made for consumer descriptive analysis passed a metal detector test. One sample of each mint formulation was further evaluated in both Expert Sensory Analysis (ESA) and Descriptive Analysis tests.
Compressed mint samples were evaluated for cooling strength, flavor strength and bitterness, or off-taste in a randomized sampling order by a 9-point scale: 0 being the lowest and 9 being the highest. Subjects were allowed to suck the compressed mint (without biting or chewing) until completely dissolved. The coolant attributes were measured at different time points up to 15 minutes.
The level of WS-12 was increased to levels from 250 to 1000 ppm (0.025%-0.1% w/w) and additional ESA evaluations were conducted.

descriptive panel (N=8) = experiment: Consumer-Descriptive Analysis panel study of compressed mints; type: in vivo, human
Method: All samples were prepared in a pilot plant under good manufacture practice conditions. Samples made for consumer descriptive analysis passed a metal detector test. One sample of each mint formulation was further evaluated in both Expert Sensory Analysis (ESA) and Descriptive Analysis tests. A Consumer-Descriptive Analysis panel study was conducted. Four mints containing various level of cooling blend were formulated at a pilot plant. During the test, each member of the descriptive panel (N=8) sucked one piece of mint until it completely dissolved. During the mint consumption, panelists evaluated various cooling attributes including oral cool and nasal cool at several specified time points. Flavor and sweetener intensity, bitterness, and off-taste were also evaluated. Panelists continued the evaluation even after mint consumption was complete, for a total of 20 minutes from the beginning of the test.

[1] = compressed mint, WS-12 1000 ppm, WS-5 and WS-12 250 ppm of each

CCOC(=O)CNC(=O)C1CC(C)CCC1C(C)C (stereo not drawn) [WS-5, N-(Ethoxycarbonylmethyl)-3-p-menthanecarboxamide]
upfront cooling intensity (Subjects; [1]): strong cooling intensity upfront
oral cooling sustained after consumption (descriptive panel (N=8); compressed mint, WS-5): up to 10 minutes
oral cooling (descriptive panel (N=8); during the 15 minutes, vs control, WS-5 500 ppm, WS-5/WS-12 250/250 ppm): higher oral cooling

COc1ccc(NC(=O)[C@@H]2C[C@H](C)CC[C@H]2C(C)C)cc1 [WS-12, (1R,2S,5R)-N-(4-Methoxyphenyl)-5-methyl-2-(1-methylethyl)cyclohexanecarboxamide]
cooling duration (Subjects; compressed mint, WS-12 1000 ppm, measured up to 15 minutes): > 15 min
upfront cooling intensity (Subjects; [1]): very low upfront cooling
cooling after 6 min (Subjects; compressed mint, compared to mint comprising WS-23 (1000 ppm), WS-12 1000 ppm, WS-5 and WS-12 250 ppm of each): significant more cooling
cooling intensity, flavor intensity or duration of cooling versus the control mints (Subjects; compressed mints, low level of WS-12 (25-100 ppm)): No significant difference

CNC(=O)C(C)(C(C)C)C(C)C [WS-23, N,2,3-Trimethyl-2-isopropylbutamide, reference compound]
oral cooling (descriptive panel (N=8); after the first 4 minutes, WS-23 0.1%): lost cooling strength and became similar to the control
oral cooling (descriptive panel (N=8); first 4 minutes, WS-23 0.1%): superior oral cooling
